Test results: article PMC10221074, “Functional Profiling of the A-Family of Venom Peptides from the Wolf Spider Lycosa shansia” (Toxins, 2023)

What was measured:
[1] = tested on: B/Malaysia/2506/2004 (B-Mal); assay type: cell-based, influenza virus
[2] = tested on: Micrococcus luteus DSM 20030; experiment: Antibacterial growth assay (OD600); details: for Antibacterial activity (in words): M. luteus DSM 20030, growth after 48 h; for Bacterial growth relative to medium, M. luteus, replicate 1 / Bacterial growth relative to medium, M. luteus, replicate 2 / Bacterial growth relative to medium, M. luteus, replicate 3: OD600, medium = 100, MH II broth, 37 °C, peptide 200 µM mixed 50 µL + 50 µL with bacteria, Figure 7: 48 h; for Bacterial growth relative to medium, M. luteus, replicate 1: replicate column 1; for Bacterial growth relative to medium, M. luteus, replicate 2: replicate column 2; for Bacterial growth relative to medium, M. luteus, replicate 3: replicate column 3
[3] = tested on: panel of seven bacterial strains; experiment: Antibacterial growth assay (OD600), statements on the whole panel; assay type: cell-based; details: growth after 48 h
A/Hessen/1/2003 (H3N2) = assay type: cell-based, influenza virus
[4] = tested on: Staphylococcus aureus DSM 2569; experiment: Antibacterial growth assay (OD600); details: OD600, medium = 100, MH II broth, 37 °C, peptide 200 µM mixed 50 µL + 50 µL with bacteria, Figure 7: 48 h; for Bacterial growth relative to medium, S. aureus, replicate 1: replicate column 1; for Bacterial growth relative to medium, S. aureus, replicate 2: replicate column 2; for Bacterial growth relative to medium, S. aureus, replicate 3: replicate column 3
Description: (§1) Cryo-conserved cultures of selected bacterial strains (Table 4) were transferred to Tryptic Soy Agar (TSA) plates (Carl Roth) with a sterile inoculation loop, sealed with Parafilm (BEMIS, Neenah, WI, USA), and incubated for 1–2 days at 37 °C depending on growth. Single colonies were picked and transferred into 2–3 mL of the Mueller–Hinton II (MH II) broth (BD, Heidelberg, Germany). The bacteria were cultivated overnight, subcultured on fresh medium and grown for 3–4 h before testing at 37 °C, with shaking at 180 rpm. We measured the optical density at 600 nm (OD600) of 1 mL of the bacterial suspensions in polystyrene cuvettes (SARSTED, Nümbrecht, Germany) using an Ultrospec 10 spectrophotometer (Biochrome, Cambridge, UK). We then diluted them with the MH II medium to the preferred OD600 (Table 2). The peptides were dissolved in DMSO to generate 10 mmol/L stocks and diluted with the MH II medium to 200 µM before the assay. We used 10 µg/mL (~40 µg/mL for S. epidermidis) gentamicin and colistin (Sigma-Aldrich, Taufkirchen, Germany), DMSO and the medium only as controls. The bacteria were transferred to 96-multiwell plates with a final volume of 100 µL per well (50 µL bacterial suspension, and 50 µL test peptide). The OD600 was measured at 0, 24 and 48 h using a BioTek Eon microplate reader followed by analysis with Gen5 v2.09.

[5] = tested on: Staphylococcus epidermidis DSM 28319; experiment: Antibacterial growth assay (OD600); details: OD600, medium = 100, MH II broth, 37 °C, peptide 200 µM mixed 50 µL + 50 µL with bacteria, Figure 7: 48 h; for Bacterial growth relative to medium, S. epidermidis, replicate 1: replicate column 1; for Bacterial growth relative to medium, S. epidermidis, replicate 2: replicate column 2; for Bacterial growth relative to medium, S. epidermidis, replicate 3: replicate column 3
Description: as §1

A/Hamburg/05/2009 (H1N1) = assay type: cell-based, influenza virus
[6] = tested on: Pseudomonas aeruginosa DSM 1117; experiment: Antibacterial growth assay (OD600); details: OD600, medium = 100, MH II broth, 37 °C, peptide 200 µM mixed 50 µL + 50 µL with bacteria, Figure 7: 48 h; for Bacterial growth relative to medium, P. aeruginosa (1117), replicate 1: replicate column 1; for Bacterial growth relative to medium, P. aeruginosa (1117), replicate 2: replicate column 2; for Bacterial growth relative to medium, P. aeruginosa (1117), replicate 3: replicate column 3
[7] = tested on: Listeria monocytogenes DSM 20600; experiment: Antibacterial growth assay (OD600); details: OD600, medium = 100, MH II broth, 37 °C, peptide 200 µM mixed 50 µL + 50 µL with bacteria, Figure 7: 48 h; for Bacterial growth relative to medium, L. monocytogenes, replicate 1: replicate column 1; for Bacterial growth relative to medium, L. monocytogenes, replicate 2: replicate column 2; for Bacterial growth relative to medium, L. monocytogenes, replicate 3: replicate column 3
[8] = tested on: Escherichia coli BL21(DE3); experiment: Antibacterial growth assay (OD600); details: OD600, medium = 100, MH II broth, 37 °C, peptide 200 µM mixed 50 µL + 50 µL with bacteria, Figure 7: 48 h; for Bacterial growth relative to medium, E. coli, replicate 1: replicate column 1; for Bacterial growth relative to medium, E. coli, replicate 2: replicate column 2; for Bacterial growth relative to medium, E. coli, replicate 3: replicate column 3
G. mellonella larvae = experiment: Insecticidal activity by injection into larvae; assay type: in vivo, Galleria mellonella; details: 50 ng peptide injected, 3 cohorts of 10 larvae, survival monitored for 5 days
Description: Insecticidal activity was determined using fourth and fifth instar G. mellonella larvae (L4/L5) obtained from Fauna Topics Zoobedarf Zucht und Handels GmbH (Marbach am Neckar, Germany). Because spider venom is injected via chelicerae, we opted for an injection-based assay to reflect the natural process of envenomation as described earlier. The peptides were dissolved in a 1:1 mixture of DMSO and water to a final concentration of 10 mmol/L. We injected 50 ng of each peptide into the pseudopodium using Omnican-F, 0.30 × 12 mm/G 30 × 1/2”, a 1 mL syringe adjusted to a WPI manual microsyringe injector setup. Injections with water, DMSO/water (1:1) and ethanol (90%) were used as controls, alongside untreated specimens. Insecticidal activity screenings were performed in cohorts of 10 larvae with 3 replicates (30 specimens per treatment or control). […] Survival was monitored every 24 h for 5 days. Mortality was calculated based on the ratio of dead to injected specimens.

[9] = tested on: Pseudomonas aeruginosa DSM 50071; experiment: Antibacterial growth assay (OD600); details: OD600, medium = 100, MH II broth, 37 °C, peptide 200 µM mixed 50 µL + 50 µL with bacteria, Figure 7: 48 h; for Bacterial growth relative to medium, P. aeruginosa (50071), replicate 1: replicate column 1; for Bacterial growth relative to medium, P. aeruginosa (50071), replicate 2: replicate column 2; for Bacterial growth relative to medium, P. aeruginosa (50071), replicate 3: replicate column 3

| Sequence | Viability of infected cells relative to aprotinin, Replicate 1 [1] | Viability of infected cells relative to aprotinin, Replicate 2 [1] | Viability of infected cells relative to aprotinin, Replicate 3 [1] | Antibacterial activity (in words) [2] | Bacterial growth relative to medium, M. luteus, replicate 1 [2] | Bacterial growth relative to medium, M. luteus, replicate 2 [2] | Bacterial growth relative to medium, M. luteus, replicate 3 [2] | Antibacterial activity over the panel (in words) [3] | Viability of infected cells relative to aprotinin, Replicate 1 (A/Hessen/1/2003 (H3N2)) | Viability of infected cells relative to aprotinin, Replicate 2 (A/Hessen/1/2003 (H3N2)) | Viability of infected cells relative to aprotinin, Replicate 3 (A/Hessen/1/2003 (H3N2)) | Bacterial growth relative to medium, S. aureus, replicate 1 [4] | Bacterial growth relative to medium, S. aureus, replicate 2 [4] | Bacterial growth relative to medium, S. aureus, replicate 3 [4] | Bacterial growth relative to medium, S. epidermidis, replicate 1 [5] | Bacterial growth relative to medium, S. epidermidis, replicate 2 [5] | Bacterial growth relative to medium, S. epidermidis, replicate 3 [5] | Viability of infected cells relative to aprotinin, Replicate 1 (A/Hamburg/05/2009 (H1N1)) | Viability of infected cells relative to aprotinin, Replicate 2 (A/Hamburg/05/2009 (H1N1)) | Viability of infected cells relative to aprotinin, Replicate 3 (A/Hamburg/05/2009 (H1N1)) | also measured |
| --- | --- | --- | --- | --- | --- | --- | --- | --- | --- | --- | --- | --- | --- | --- | --- | --- | --- | --- | --- | --- | --- |
| GSLLGLLDVVKSKVGQTGLL [LS-AMP-A19] | 0.02926 | 0.02406 | 0.04584 | strongly suppressed the growth | 38.8889 | 63.626 | 16.4993 | largely inactive | 0.07115 | 0.1267 | 0.119 | 70.8601 | 71.4846 | 83.7635 | 91.5432 | 106.521 | 92.445 | 0.03506 | 0.03971 | 0.04612 | Bacterial growth relative to medium, P. aeruginosa (1117), replicate 1 [6]: 72.8823; Bacterial growth relative to medium, P. aeruginosa (1117), replicate 2 [6]: 76.8187; Bacterial growth relative to medium, P. aeruginosa (1117), replicate 3 [6]: 66.0758; Bacterial growth relative to medium, L. monocytogenes, replicate 1 [7]: 151.42; Bacterial growth relative to medium, L. monocytogenes, replicate 2 [7]: 105.659; Bacterial growth relative to medium, L. monocytogenes, replicate 3 [7]: 60.4017; Bacterial growth relative to medium, E. coli, replicate 1 [8]: 95.9562; Bacterial growth relative to medium, E. coli, replicate 2 [8]: 82.2712; Bacterial growth relative to medium, E. coli, replicate 3 [8]: 94.9872; Insecticidal effect on larvae (in words) (G. mellonella larvae): Individual dead insects; Bacterial growth relative to medium, P. aeruginosa (50071), replicate 1 [9]: 103.493; Bacterial growth relative to medium, P. aeruginosa (50071), replicate 2 [9]: 107.483; Bacterial growth relative to medium, P. aeruginosa (50071), replicate 3 [9]: 85.194 |
| DVVKSKVGQT [LS-AMP-A20] | 0.07308 | 0.07936 | 0.06088 | strongest effect | 84.9437 | 89.1892 | 58.8713 | marginal effects against several bacteria | 0.06093 | 0.1556 | 0.1529 | 65.5327 | 71.5501 | 85.4097 | 65.0524 | 56.0414 | 87.4721 | 0.03404 | 0.03606 | 0.06978 | Viability of infected cells relative to aprotinin, Replicate 4 (A/Hessen/1/2003 (H3N2); […], replicate 4 (additional internal control)): 0.1478; Bacterial growth relative to medium, P. aeruginosa (1117), replicate 1 [6]: 78.7161; Bacterial growth relative to medium, P. aeruginosa (1117), replicate 2 [6]: 66.133; Bacterial growth relative to medium, P. aeruginosa (1117), replicate 3 [6]: 53.5452; Bacterial growth relative to medium, L. monocytogenes, replicate 1 [7]: 113.144; Bacterial growth relative to medium, L. monocytogenes, replicate 2 [7]: 85.2342; Bacterial growth relative to medium, L. monocytogenes, replicate 3 [7]: 40.8896; Bacterial growth relative to medium, E. coli, replicate 1 [8]: 95.2629; Bacterial growth relative to medium, E. coli, replicate 2 [8]: 75.2606; Bacterial growth relative to medium, E. coli, replicate 3 [8]: 50.6769; Insecticidal effect on larvae (in words) (G. mellonella larvae): Individual dead insects; Bacterial growth relative to medium, P. aeruginosa (50071), replicate 1 [9]: 100.814; Bacterial growth relative to medium, P. aeruginosa (50071), replicate 2 [9]: 110.766; Bacterial growth relative to medium, P. aeruginosa (50071), replicate 3 [9]: 86.151 |
